Measurements published in ChEMBL document CHEMBL1909046, “DrugMatrix in vitro pharmacology data”.
pIC50, pKi: −log10 of the molar value.

Columns and labels:
[1] = molecular target: Cytochrome P450 2D6 (Homo sapiens, UniProt P10635); conditions: bti-tn-5b1-4; also: in other assays of this panel Not Active means under 50% inhibition at 10 µM
[2] = molecular target: T1, Type-2 angiotensin II receptor (Homo sapiens, UniProt P50052); format: cell-based; conditions: cho-k1; also: in other assays of this panel Not Active means under 50% inhibition at 10 µM
T1 sequence (P50052 whole entry): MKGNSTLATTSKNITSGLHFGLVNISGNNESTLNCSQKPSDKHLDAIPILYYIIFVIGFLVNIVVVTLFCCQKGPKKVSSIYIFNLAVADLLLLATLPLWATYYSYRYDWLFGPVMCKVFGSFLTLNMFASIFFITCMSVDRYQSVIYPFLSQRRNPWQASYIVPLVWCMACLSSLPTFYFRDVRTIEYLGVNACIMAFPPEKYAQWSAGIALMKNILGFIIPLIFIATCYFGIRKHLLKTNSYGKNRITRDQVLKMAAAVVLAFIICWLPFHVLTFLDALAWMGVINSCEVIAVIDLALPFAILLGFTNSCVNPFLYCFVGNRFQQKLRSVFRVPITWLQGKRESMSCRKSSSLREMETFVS

[3] = molecular target: Melanocortin receptor 4 (Homo sapiens, UniProt P32245); format: cell membranes, Membrane; conditions: hek293; also: in other assays of this panel Not Active means under 50% inhibition at 10 µM
Chain of Melanocortin receptor 4 (P32245 whole entry): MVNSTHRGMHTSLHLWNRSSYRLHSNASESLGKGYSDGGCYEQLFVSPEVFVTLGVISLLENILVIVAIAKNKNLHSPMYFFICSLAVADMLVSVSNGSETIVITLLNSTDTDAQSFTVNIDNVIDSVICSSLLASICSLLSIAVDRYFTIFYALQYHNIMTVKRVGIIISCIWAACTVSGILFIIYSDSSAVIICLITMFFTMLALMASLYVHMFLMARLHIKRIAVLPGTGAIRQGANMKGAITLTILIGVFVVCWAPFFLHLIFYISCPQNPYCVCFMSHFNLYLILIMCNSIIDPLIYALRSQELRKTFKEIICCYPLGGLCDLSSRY

[4] = molecular target: Insulin receptor (Rattus norvegicus, UniProt P15127); format: cell membranes, Wistar, Liver, Membrane; also: in other assays of this panel Not Active means under 50% inhibition at 10 µM
Chain of Insulin receptor (P15127 27-759 limits assumed): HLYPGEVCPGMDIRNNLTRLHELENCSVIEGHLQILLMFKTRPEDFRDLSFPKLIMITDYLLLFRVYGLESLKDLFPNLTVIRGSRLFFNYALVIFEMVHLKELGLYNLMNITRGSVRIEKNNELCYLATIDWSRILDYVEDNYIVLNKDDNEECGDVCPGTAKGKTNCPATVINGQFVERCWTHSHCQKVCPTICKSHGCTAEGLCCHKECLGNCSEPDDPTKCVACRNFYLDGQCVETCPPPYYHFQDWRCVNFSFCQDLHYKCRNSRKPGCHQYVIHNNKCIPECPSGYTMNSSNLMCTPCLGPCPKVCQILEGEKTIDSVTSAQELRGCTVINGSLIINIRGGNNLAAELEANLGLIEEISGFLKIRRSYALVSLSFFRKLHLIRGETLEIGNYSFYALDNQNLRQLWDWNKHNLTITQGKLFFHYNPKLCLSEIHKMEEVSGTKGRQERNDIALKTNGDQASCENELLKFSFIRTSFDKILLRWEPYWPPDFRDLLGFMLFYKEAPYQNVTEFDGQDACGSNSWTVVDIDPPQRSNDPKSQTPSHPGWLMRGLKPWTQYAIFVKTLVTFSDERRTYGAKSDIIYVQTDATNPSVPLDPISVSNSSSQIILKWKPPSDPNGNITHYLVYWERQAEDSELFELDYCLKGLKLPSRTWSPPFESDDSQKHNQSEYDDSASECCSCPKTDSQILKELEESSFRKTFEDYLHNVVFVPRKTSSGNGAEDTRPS
Chain of Insulin receptor (P15127 764-1383 limits assumed): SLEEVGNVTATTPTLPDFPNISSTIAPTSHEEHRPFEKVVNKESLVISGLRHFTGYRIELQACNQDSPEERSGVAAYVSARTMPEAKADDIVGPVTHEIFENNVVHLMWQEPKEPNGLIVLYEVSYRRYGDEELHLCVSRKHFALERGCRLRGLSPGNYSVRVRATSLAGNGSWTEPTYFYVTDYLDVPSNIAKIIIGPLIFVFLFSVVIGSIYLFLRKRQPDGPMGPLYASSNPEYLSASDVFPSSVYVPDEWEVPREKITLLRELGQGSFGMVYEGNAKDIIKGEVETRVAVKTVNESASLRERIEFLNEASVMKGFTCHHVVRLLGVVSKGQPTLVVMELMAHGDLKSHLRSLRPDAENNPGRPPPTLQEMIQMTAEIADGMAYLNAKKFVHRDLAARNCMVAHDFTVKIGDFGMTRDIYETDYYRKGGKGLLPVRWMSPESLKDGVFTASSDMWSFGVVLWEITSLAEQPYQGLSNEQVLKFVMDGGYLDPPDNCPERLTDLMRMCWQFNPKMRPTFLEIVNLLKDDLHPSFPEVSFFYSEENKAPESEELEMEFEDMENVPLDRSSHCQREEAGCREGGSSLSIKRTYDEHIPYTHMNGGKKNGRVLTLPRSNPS

[5] = molecular target: T2, Cholecystokinin receptor type A (Homo sapiens, UniProt P32238); format: cell membranes, Membrane; conditions: 1321-n1; also: in other assays of this panel Not Active means under 50% inhibition at 10 µM
T2 sequence (P32238 whole entry): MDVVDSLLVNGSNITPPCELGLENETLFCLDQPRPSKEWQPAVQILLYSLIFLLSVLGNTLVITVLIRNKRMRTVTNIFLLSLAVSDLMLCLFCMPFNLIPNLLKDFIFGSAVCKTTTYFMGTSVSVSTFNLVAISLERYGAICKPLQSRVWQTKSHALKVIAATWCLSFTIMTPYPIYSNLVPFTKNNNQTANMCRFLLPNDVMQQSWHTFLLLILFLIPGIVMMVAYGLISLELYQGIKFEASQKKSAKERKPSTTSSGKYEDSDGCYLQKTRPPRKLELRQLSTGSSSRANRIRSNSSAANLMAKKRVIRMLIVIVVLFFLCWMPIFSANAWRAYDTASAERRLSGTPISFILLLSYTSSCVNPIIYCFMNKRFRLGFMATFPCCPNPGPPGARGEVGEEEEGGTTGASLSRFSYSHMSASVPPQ

[6] = molecular target: Aldo-keto reductase family 1 member B1 (Rattus norvegicus, UniProt P07943); assay: biochemical; format: tissue-based, Lens of camera-type eye
[7] = molecular target: T3, Substance-K receptor (Homo sapiens, UniProt P21452); format: cell membranes, CHO, Membrane; conditions: cho; also: in other assays of this panel Not Active means under 50% inhibition at 10 µM
T3 sequence (P21452 whole entry): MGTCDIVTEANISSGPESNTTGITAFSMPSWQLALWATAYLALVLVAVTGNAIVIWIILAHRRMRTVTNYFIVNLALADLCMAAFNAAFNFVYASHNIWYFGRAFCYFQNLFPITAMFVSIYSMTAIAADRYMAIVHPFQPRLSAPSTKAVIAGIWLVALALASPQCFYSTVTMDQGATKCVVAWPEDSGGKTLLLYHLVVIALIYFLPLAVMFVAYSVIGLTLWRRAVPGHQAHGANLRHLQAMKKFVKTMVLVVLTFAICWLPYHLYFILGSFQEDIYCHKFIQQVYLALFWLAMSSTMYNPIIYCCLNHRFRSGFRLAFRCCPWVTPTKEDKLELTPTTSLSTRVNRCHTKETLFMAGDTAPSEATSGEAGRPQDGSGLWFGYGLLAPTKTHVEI

[8] = molecular target: Mu-type opioid receptor (Homo sapiens, UniProt P35372); assay: DRUGMATRIX: Opiate mu (OP3, MOP) radioligand binding (ligand: [3H] Diprenorphine); format: cell membranes, CHO-K1, Membrane; conditions: Not Active = under 50% inhibition at 10 µM; for IC50: cho-k1
Chain of Mu-type opioid receptor (P35372 whole entry): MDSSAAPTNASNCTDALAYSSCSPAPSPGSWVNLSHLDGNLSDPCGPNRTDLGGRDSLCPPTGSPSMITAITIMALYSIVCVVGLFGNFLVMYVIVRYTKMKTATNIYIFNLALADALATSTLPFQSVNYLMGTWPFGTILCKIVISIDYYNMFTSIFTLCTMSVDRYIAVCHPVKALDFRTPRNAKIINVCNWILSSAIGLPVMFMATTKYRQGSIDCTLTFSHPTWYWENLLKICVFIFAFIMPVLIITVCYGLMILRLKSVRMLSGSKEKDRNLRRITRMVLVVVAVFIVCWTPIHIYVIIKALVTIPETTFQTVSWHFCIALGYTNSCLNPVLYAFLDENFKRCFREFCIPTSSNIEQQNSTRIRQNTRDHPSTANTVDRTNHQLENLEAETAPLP

Chain of Cytochrome P450 2D6 (P10635 whole entry): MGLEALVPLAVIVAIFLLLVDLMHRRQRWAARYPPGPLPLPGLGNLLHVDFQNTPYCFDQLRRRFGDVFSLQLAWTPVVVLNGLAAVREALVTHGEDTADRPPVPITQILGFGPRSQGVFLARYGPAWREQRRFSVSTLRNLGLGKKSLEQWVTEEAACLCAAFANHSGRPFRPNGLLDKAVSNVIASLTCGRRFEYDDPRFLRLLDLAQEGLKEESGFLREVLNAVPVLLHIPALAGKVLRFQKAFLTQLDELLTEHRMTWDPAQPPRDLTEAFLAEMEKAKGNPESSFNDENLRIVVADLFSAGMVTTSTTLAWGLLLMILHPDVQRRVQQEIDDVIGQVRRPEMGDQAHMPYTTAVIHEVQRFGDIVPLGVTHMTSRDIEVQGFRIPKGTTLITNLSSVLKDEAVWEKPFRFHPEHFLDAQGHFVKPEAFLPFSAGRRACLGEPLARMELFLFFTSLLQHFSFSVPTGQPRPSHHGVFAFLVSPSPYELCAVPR

Row | SMILES | IC50 [1] | Ki [1] | IC50 [2] | IC50 [3] | IC50 [4] | IC50 [5] | IC50 [6] | IC50 [7] | IC50 [8] | pKi [8] | pIC50 ([8]; read-out: IC50)
1 | O=C(O)CO [GLYCOLIC ACID] | Not Active | Not Active | Not Active | Not Active | Not Active | Not Active | Not Active | Not Active | Not Active |  | 
2 | COC(=O)C[C@](O)(CCC(C)(C)O)C(=O)O[C@@H]1C(OC)=C[C@]23CCCN2CCc2cc4c(cc2[C@H]13)OCO4 [HARRINGTONINE] | Not Active | Not Active | Not Active | Not Active | Not Active | Not Active | Not Active | Not Active | Not Active |  | 
3 | CC12CCC(CC1=O)C2(C)C (stereo unspecified) [CAMPHOR] | Not Active | Not Active | Not Active | Not Active | Not Active | Not Active | Not Active | Not Active | Not Active |  | 
4 | CCN1CCN(C(=O)N[C@@H](C(=O)N[C@@H]2C(=O)N3[C@@H]2SC(C)(C)[C@@H]3C(=O)O)c2ccccc2)C(=O)C1=O [PIPERACILLIN] | Not Active | Not Active | Not Active | Not Active | Not Active | Not Active | Not Active | Not Active | Not Active |  | 
5 | O=C(O)CCc1nc(-c2ccccc2)c(-c2ccccc2)o1 [OXAPROZIN] | Not Active | Not Active | Not Active | Not Active | Not Active | Not Active | Not Active | Not Active | Not Active |  | 
6 | c1ccc2sc(SSc3nc4ccccc4s3)nc2c1 [BENZOTHIAZYL DISULFIDE] | Not Active | Not Active | Not Active | Not Active | Not Active | Not Active | Not Active | Not Active |  | 5.90 | 5.51
7 | O=C1CN(/N=C/c2ccc([N+](=O)[O-])o2)C(=O)N1 [NITROFURANTOIN] | Not Active | Not Active | Not Active | Not Active | Not Active | Not Active | Not Active | Not Active | Not Active |  | 
8 | NCC(CC(=O)O)c1ccc(Cl)cc1 (stereo unspecified) [BACLOFEN] | Not Active | Not Active | Not Active | Not Active | Not Active | Not Active | Not Active | Not Active | Not Active |  | 
9 | OC[C@H]1O[C@@H]2O[C@H]3[C@H](O)[C@@H](O)[C@@H](O[C@H]4[C@H](O)[C@@H](O)[C@@H](O[C@H]5[C@H](O)[C@@H](O)[C@@H](O[C@H]6[C@H](O)[C@@H](O)[C@@H](O[C@H]7[C@H](O)[C@@H](O)[C@@H](O[C@H]8[C@H](O)[C@@H](O)[C@@H](O[C@H]1[C@H](O)[C@H]2O)O[C@@H]8CO)O[C@@H]7CO)O[C@@H]6CO)O[C@@H]5CO)O[C@@H]4CO)O[C@@H]3CO [BETADEX] | Not Active | Not Active | Not Active | Not Active | Not Active | Not Active | Not Active | Not Active | Not Active |  | 
10 | Cl.NC[C@H]1CC[C@H](C(=O)Oc2ccc(CCC(=O)O)cc2)CC1 [CETRAXATE HYDROCHLORIDE] | Not Active | Not Active | Not Active | Not Active | Not Active | Not Active | Not Active | Not Active | Not Active |  | 
